Measured values published in the supplement of paper PMC11061612.

What was measured:
AZD4320 = compound: CN(CC[C@H](CSC1=CC=CC=C1)NC2=C(C=C(C=C2)S(=O)(=O)NC(=O)C3=CC=C(C=C3)N4CCC(CC4)[C@H](C5=CC=CC=C5C6=CC=C(C=C6)Cl)O)S(=O)(=O)C(F)(F)F)CCO [AZD4320]; conditions: max 1 µM
In short: (§1)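 After 24 hours at 37°C and 5% CO2 in 1536-well plates holding 7.5 μl of DMEM/F12 or RPMI with 10% FBS, cancer cell lines were dosed for 72 hours, with final DMSO typically 0.2%. Viability came from CellTiter-Glo 2.0 luminescence, scaled between the means of blank wells and DMSO wells. A non-linear mixed effects model fitted a two-parameter logistic curve to each dose response to give the single-agent IC50.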

AZD7648 = compound: Cc1cc2ncnn2cc1Nc1ncc2c(n1)n(C1CCOCC1)c(=O)n2C [AZD7648]; conditions: max 10 µM
In short: as §1

AZD6738 = compound: C[C@@H]1COCCN1C2=NC(=NC(=C2)C3(CC3)[S@](=N)(=O)C)C4=C5C=CNC5=NC=C4 [AZD6738]; conditions: max 10 µM
In short: as §1

Taselisib = compound: Cc1nc(-c2cn3c(n2)-c2ccc(-c4cnn(C(C)(C)C(N)=O)c4)cc2OCC3)n(C(C)C)n1 [Taselisib]; conditions: max 10 µM
In short: as §1

SG3199 = compound: CC1=CN2[C@@H](C1)C=NC3=CC(=C(C=C3C2=O)OC)OCCCCCOC4=C(C=C5C(=C4)N=C[C@@H]6CC(=CN6C5=O)C)OC [SG3199]; conditions: max 0.001 µM
In short: as §1

AZD0156 = compound: CN(C)CCCOc1ccc(-c2ccc3ncc4c(c3c2)n(C2CCOCC2)c(=O)n4C)cn1 [AZD0156]; conditions: max 3 µM
In short: as §1

Dasatinib = compound: CC1=C(C(=CC=C1)Cl)NC(=O)C2=CN=C(S2)NC3=CC(=NC(=N3)C)N4CCN(CC4)CCO [Dasatinib]; conditions: max 2 µM
In short: as §1

Paclitaxel = compound: CC(=O)O[C@H]1C(=O)[C@@]2(C)[C@H]([C@H](OC(=O)c3ccccc3)[C@]3(O)C[C@H](OC(=O)[C@H](O)[C@@H](NC(=O)c4ccccc4)c4ccccc4)C(C)=C1C3(C)C)[C@]1(OC(C)=O)CO[C@@H]1C[C@@H]2O [Paclitaxel]; conditions: max 3 µM
In short: as §1

Trametinib = compound: CC(=O)Nc1cccc(-n2c(=O)n(C3CC3)c(=O)c3c(Nc4ccc(I)cc4F)n(C)c(=O)c(C)c32)c1 [Trametinib]; conditions: max 1 µM
In short: as §1

Doxorubicin = compound: COc1cccc2c1C(=O)c1c(O)c3c(c(O)c1C2=O)C[C@@](O)(C(=O)CO)C[C@@H]3O[C@H]1C[C@H](N)[C@H](O)[C@H](C)O1 [Doxorubicin]; conditions: max 1 µM
In short: as §1

AZD1775 = compound: C=CCn1c(=O)c2cnc(Nc3ccc(N4CCN(C)CC4)cc3)nc2n1-c1cccc(C(C)(C)O)n1 [AZD1775]; conditions: max 3 µM
In short: as §1

Gemcitabine = compound: Nc1ccn([C@@H]2O[C@H](CO)[C@@H](O)C2(F)F)c(=O)n1 [Gemcitabine]; conditions: max 0.3 µM
In short: as §1

AZD5363 = compound: C1CN(CCC1(C(=O)N[C@@H](CCO)C2=CC=C(C=C2)Cl)N)C3=NC=NC4=C3C=CN4 [AZD5363]; conditions: max 10 µM
In short: as §1

Savolitinib = compound: C[C@@H](c1ccc2nccn2c1)n1nnc2ncc(-c3cnn(C)c3)nc21 [Savolitinib]; conditions: max 1 µM
In short: as §1

AZD5153 = compound: COc1nnc2ccc(N3CCC(c4ccc(OCCN5CCN(C)C(=O)[C@H]5C)cc4)CC3)nn12 [AZD5153]; conditions: max 1 µM
In short: as §1

AZD5991 = compound: Cc1c2c(nn1C)CSCc1cc(n(C)n1)CSc1cc(c3ccccc3c1)OCCCc1c(C(=O)O)n(C)c3c-2c(Cl)ccc13 [AZD5991]; conditions: max 1 µM
In short: as §1

Alisertib = compound: COc1cc(Nc2ncc3c(n2)-c2ccc(Cl)cc2C(c2c(F)cccc2OC)=NC3)ccc1C(=O)O [Alisertib]; conditions: max 10 µM
In short: as §1

Selumetinib = compound: Cn1cnc2c(F)c(Nc3ccc(Br)cc3Cl)c(C(=O)NOCCO)cc21 [Selumetinib]; conditions: max 10 µM
In short: as §1

MK-2206 = compound: NC1(c2ccc(-c3nc4ccn5c(=O)[nH]nc5c4cc3-c3ccccc3)cc2)CCC1 [MK-2206]; conditions: max 10 µM
In short: as §1

SN-38 = compound: CCc1c2c(nc3ccc(O)cc13)-c1cc3c(c(=O)n1C2)COC(=O)[C@]3(O)CC [SN-38]; conditions: max 0.3 µM
In short: as §1

5-Fluorouracil = compound: O=c1[nH]cc(F)c(=O)[nH]1 [5-Fluorouracil]; conditions: max 20 µM
In short: as §1

Prexasertib = compound: COc1cccc(OCCCN)c1-c1cc(Nc2cnc(C#N)cn2)n[nH]1 [Prexasertib]; conditions: max 1 µM
In short: as §1

[1] = compound: O=C(Nc1ccc2[nH]nc(-c3ccncc3)c2c1)[C@@H]1CCN(CC(=O)N2CCN(c3ccc(-c4ncccn4)cc3)CC2)C1; conditions: max 5 µM
In short: as §1

Venetoclax = compound: CC1(C)CCC(CN2CCN(c3ccc(C(=O)NS(=O)(=O)c4ccc(NCC5CCOCC5)c([N+](=O)[O-])c4)c(Oc4cnc5[nH]ccc5c4)c3)CC2)=C(c2ccc(Cl)cc2)C1 [Venetoclax]; conditions: max 1 µM
In short: as §1

Etoposide = compound: COc1cc([C@@H]2c3cc4c(cc3[C@@H](O[C@@H]3O[C@@H]5CO[C@@H](C)O[C@H]5[C@H](O)[C@H]3O)[C@H]3COC(=O)[C@H]23)OCO4)cc(OC)c1O [Etoposide]; conditions: max 10 µM
In short: as §1

AZD2811 = compound: CCN(CCO)CCCOc1ccc2c(Nc3cc(CC(=O)Nc4cccc(F)c4)[nH]n3)ncnc2c1 [AZD2811]; conditions: max 1 µM
In short: as §1

Lapatinib = compound: CS(=O)(=O)CCNCc1ccc(-c2ccc3ncnc(Nc4ccc(OCc5cccc(F)c5)c(Cl)c4)c3c2)o1 [Lapatinib]; conditions: max 10 µM
In short: as §1

Palbociclib = compound: CC(=O)c1c(C)c2cnc(Nc3ccc(N4CCNCC4)cn3)nc2n(C2CCCC2)c1=O [Palbociclib]; conditions: max 10 µM
In short: as §1

AZD1390 = compound: CC(C)n1c(=O)n(C)c2cnc3cc(F)c(-c4ccc(OCCCN5CCCCC5)nc4)cc3c21 [AZD1390]; conditions: max 0.3 µM
In short: as §1

Gefitinib = compound: COc1cc2ncnc(Nc3ccc(F)c(Cl)c3)c2cc1OCCCN1CCOCC1 [Gefitinib]; conditions: max 10 µM
In short: as §1

SRA737 = compound: N#Cc1cnc(Nc2cc(NC[C@H]3CNCCO3)c(C(F)(F)F)cn2)cn1 [SRA737]; conditions: max 10 µM
In short: as §1

Olaparib = compound: O=C(c1cc(Cc2n[nH]c(=O)c3ccccc23)ccc1F)N1CCN(C(=O)C2CC2)CC1 [Olaparib]; conditions: max 10 µM
In short: as §1

Carboplatin = compound: C1CC(C1)(C(=O)[O-])C(=O)[O-].N.N.[Pt+2] [Carboplatin]; conditions: max 10 µM
In short: as §1

AZD8186 = compound: C[C@@H](Nc1cc(F)cc(F)c1)c1cc(C(=O)N(C)C)cc2c(=O)cc(N3CCOCC3)oc12 [AZD8186]; conditions: max 10 µM
In short: as §1

Crizotinib = compound: C[C@@H](Oc1cc(-c2cnn(C3CCNCC3)c2)cnc1N)c1c(Cl)ccc(F)c1Cl [Crizotinib]; conditions: max 10 µM
In short: as §1

NCI-H2818 (Mesothelioma) was tested, and the “IC50, cell viability 72 h” value (AZD4320) was > 1 µM, the “IC50, cell viability 72 h” value (AZD7648) was > 10 µM and the “IC50, cell viability 72 h” value (AZD6738) was > 10 µM. The “IC50, cell viability 72 h” value (Taselisib) was > 10 µM, the “IC50, cell viability 72 h” value (SG3199) was > 0.001 µM and the “IC50, cell viability 72 h” value (AZD0156) was > 3 µM. For the same cell line, the “IC50, cell viability 72 h” value (Dasatinib) was > 2 µM, the “IC50, cell viability 72 h” value (Paclitaxel) was 0.745 µM and the “IC50, cell viability 72 h” value (Trametinib) was > 1 µM. For the same cell line, the “IC50, cell viability 72 h” value (Doxorubicin) was > 1 µM, the “IC50, cell viability 72 h” value (AZD1775) was > 3 µM and the “IC50, cell viability 72 h” value (Gemcitabine) was > 0.3 µM. The “IC50, cell viability 72 h” value (AZD5363) was > 10 µM, the “IC50, cell viability 72 h” value (Savolitinib) was > 1 µM and the “IC50, cell viability 72 h” value (AZD5153) was > 1 µM. For the same cell line, the “IC50, cell viability 72 h” value (AZD5991) was > 1 µM, the “IC50, cell viability 72 h” value (Alisertib) was > 10 µM and the “IC50, cell viability 72 h” value (Selumetinib) was > 10 µM. The “IC50, cell viability 72 h” value (MK-2206) was > 10 µM, the “IC50, cell viability 72 h” value (SN-38) was > 0.3 µM and the “IC50, cell viability 72 h” value (5-Fluorouracil) was > 20 µM. The “IC50, cell viability 72 h” value (Prexasertib) was > 1 µM, the “IC50, cell viability 72 h” value [1] was > 5 µM and the “IC50, cell viability 72 h” value (Venetoclax) was > 1 µM. For the same cell line, the “IC50, cell viability 72 h” value (Etoposide) was > 10 µM, the “IC50, cell viability 72 h” value (AZD2811) was > 1 µM and the “IC50, cell viability 72 h” value (Lapatinib) was > 10 µM. For the same cell line, the “IC50, cell viability 72 h” value (Palbociclib) was > 10 µM, the “IC50, cell viability 72 h” value (AZD1390) was > 0.3 µM and the “IC50, cell viability 72 h” value (Gefitinib) was > 10 µM. The “IC50, cell viability 72 h” value (SRA737) was > 10 µM, the “IC50, cell viability 72 h” value (Olaparib) was > 10 µM and the “IC50, cell viability 72 h” value (Carboplatin) was > 10 µM. For the same cell line, the “IC50, cell viability 72 h” value (AZD8186) was > 10 µM and the “IC50, cell viability 72 h” value (Crizotinib) was > 10 µM.
